This is an account of results in patent US10550097B2, “Selective 11-beta-hydroxysteroid dehydrogenase type 1 inhibitors” (DSM IP ASSETS B.V., priority 2015, dated 2020).

Marks after values point to notes of the source that are not given here.

One may read the remaining activity as the activity still measured, relative to the control.

One data set concerns the target 11β-HSD1 (Homo sapiens, UniProt P28845). In words: Human keratinocytes assay: 11β-HSD1 activity (cortisone to cortisol). Format: cell-based. Conditions: 48 h. The method, then: Cell Culture: Primary human skin keratinocytes obtained from CelINTec advanced Cell Systems were maintained in CnT-PR medium at 37° C. in a humidified 5% CO2-air atmosphere. Cells were subcultured before reaching confluence.
Assessment of 11β-HSD1 activity: Human primary keratinocytes were pre-cultured in complete culture media (CnT-PR, CelINTec) to 90% of confluence. Subsequently cells were washed twice with PBS-buffer to remove remaining corticosteroids and media were exchanged to custom made hydrocortisone-free media.
Calculation: % remaining 11β-HSD1 activity=(cortisol-level with inhibitor/cortisol-level without inhibitor)*100%

In data set [1] the test system is Human skin from abdominal plastic surgery. The data set can be described thus: Ex vivo: total dermal collagen after cortisone and cortisone/inhibitor treatment. Format: cell-based. Conditions: day 6; for Dermal collagen: untreated set to 100%. The method, then: Human skin from abdominal plastic surgery was used. The skin samples were cut in pieces of ˜8×3 mm (ø×thickness) and cultured up to day 6 in an air-liquid interface in a perforated ring of stainless steel in contact with a culture medium (modified Williams' E medium), while renewing the culture medium on day 3. Six skin specimens were used for each test sample. Each test sample (4 μl) was applied topically on top of each piece after cleaning of the surface with a cotton pad, which was subsequently covered with a 6 ø mm delivery membrane, this procedure was repeated daily. After 6 days skin sections were stained with Picrosirius Red histochemical staining, that dyes collagen fibers in purple-red. The papillary dermis was selected for the analysis. The different colors of the pictures were separated by using a deconvolution matrix. After deconvolution only pink-reddish images are used. Within these images the evaluation of dermal collagen was performed by estimating both color intensity and distribution with IMAGE J (NIH) analysis software. Two slides of each skin sample were processed by image acquisition and related analysis (i.e. 12 images for each treatment).

For data set [2] the test system is unchanged. In words: Ex vivo: total dermal collagen III after UV-irradiation. Conditions: for Increase versus UV treatment (#2): day 6; for Dermal collagen III: daily UV 6 J/cm^2, day 6, non UV treated set to 100%. Format: cell-based. The method, then:
Human skin from abdominal plastic surgery classified as “Intermediate” (ITA° angle=42°) was used. The skin samples were cut in pieces of approx. 8×3 mm (0×thickness) and cultured up to day 6 in an air-liquid interface in a perforated ring of stainless steel in contact with a culture medium (modified Williams' E medium, while renewing the culture medium on day 3. Six skin specimens were used for each test sample. Each test sample (4 μl) was topically applied on top of each piece after gentle cleaning of the surface with a cotton pad, which was subsequently covered with a 6 ø mm delivery membrane, this procedure was repeated daily. The samples were irradiated daily with 80% of the Biological effective dose for daylight (i.e. 6 J/cm^2) using an adopted BIO-SUN system (Vilber Lourmat). At day 6 twelve skin sections were immunostained with mouse monoclonal anti-collagen III antibody (Sigma cat #c7805). The papillary dermis was selected for the analysis. The evaluation was performed by estimating both color intensity and distribution with IMAGE J (NIH) analysis software. Two slides of each skin sample have been processed by image acquisition and related analysis (i.e. 12 images for each treatment).

Data set [3] in a line: Solubility in cosmetic oils from saturated mixtures (UPLC). As to conditions: 7 days at room temperature (22° C.); for Solubility in cosmetic oils: Cetiol B: Cetiol B (dibutyl adipate); for Solubility in cosmetic oils: DUB DIS: DUB DIS (diisopropyl sebacate); for Solubility in cosmetic oils: Finsolv EB: Finsolv EB (ethylhexyl benzoate). Format: physicochemical. The method, then:
H2O+0.02% TFA (A phase) and MeCN+0.02% TFA (B phase) were used as eluents, with a flow of 0.5 mL/min.
The solubility of selected compounds was tested in the cosmetic oils Cetiol B (INCI name: dibutyl adipate from BASF Personal Care), DUB DIS (INCI name: diisopropyl sebacate from Stearinerie Dubois) and Finsolv EB ((INCI name: ethylhexyl benzoate from Innospec Performance Chemicals).
Samples of about 1 mg of the compounds to be tested were exactly weighted and dissolved in 90% MeCN(aq) to provide 0.1% (1000 ppm) w/v stock solutions. Aliquots of the stock solutions were diluted with 90% MeCN(aq) to provide 10, 100 and 250 ppm diluted solutions, which were tested by UPLC.
For each compound to be tested about 20 mg material were weighted in three microcentrifuge tubes and to each tube about 150 mg of one cosmetic oil were added, as reported in Table 5 below.
After mixing on a Vortex mixer for 5 min, the respective samples were mixed on a waving platform shaker (20 cycles/min) for 7 days at room temperature (22° C.). After that time, the tubes were centrifuged for 5 min at 12000 rpm, 10 μL samples of the supernatant were diluted to 1.00 mL with MeOH, 100 μL of these solutions were diluted to 1.00 mL with 90% MeCN(aq) and subsequently analyzed by UPLC. The compound concentration in each solution was calculated using the respective calibration curve. From the compound concentration in the diluted solutions the concentrations of the respective parent mixtures was calculated accordingly.

The mark [4] stands for this setting: 10 μM in DMSO, cortisone/inhibitor treatment, topical daily.
[5] abbreviates: 100 μM in DMSO, cortisone/inhibitor treatment, topical daily.
The mark [6] stands for this setting: 200 μM in DMSO, cortisone/inhibitor treatment, topical daily.

Chain of 11β-HSD1 (P28845 whole entry): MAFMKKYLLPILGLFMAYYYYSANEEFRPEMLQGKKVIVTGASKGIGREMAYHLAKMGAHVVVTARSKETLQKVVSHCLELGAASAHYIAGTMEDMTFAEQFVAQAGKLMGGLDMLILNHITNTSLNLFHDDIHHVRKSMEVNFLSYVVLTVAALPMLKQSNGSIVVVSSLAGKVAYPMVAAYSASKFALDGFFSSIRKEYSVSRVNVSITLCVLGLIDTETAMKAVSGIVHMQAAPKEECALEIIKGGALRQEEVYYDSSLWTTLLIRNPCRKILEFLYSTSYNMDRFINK

At 11β-HSD1, `Cc1ccc(-c2cccc(C(=O)N3CCOC(C)(C)C3)c2)cc1F` [III-a, (2,2-dimethylmorpholino) (3′-fluoro-4′-methyl-[1,1′-biphenyl]-3-yl)methanone] showed a remaining activity at 0.00032 µM of 70%, a remaining activity at 0.001 µM of 55%, a remaining activity at 0.00316 µM of 37% and a remaining activity at 0.01 µM of 11%. On 11β-HSD1, this compound yielded a remaining activity at 0.03162 µM of 3% and a remaining activity at 0.1 µM of 0%.

As to `C[C@]12CCC(=O)C=C1CC[C@@H]1[C@@H]2C(=O)C[C@@]2(C)[C@H]1CC[C@]2(O)C(=O)CO` [cortisone, reference compound], the Dermal collagen in data set [1] (cortisone alone 0.1 μM in DMSO) was 77%.

As to `CC1CCN(C(=O)c2cccc(-c3ccccc3Cl)c2)CC1` [II-e, (2′-chloro-[1,1′-biphenyl]-3-yl)(4-methylpiperidin-1-yl)methanone], at 11β-HSD1, the remaining activity at 0.001 µM came to 85%, the remaining activity at 0.00316 µM worked out at 70%, the remaining activity at 0.01 µM was 50% and the remaining activity at 0.03162 µM stood at 21%. Moreover, the remaining activity at 0.1 µM on 11β-HSD1 worked out at 4%.

Regarding `O=C(c1cccc(-c2ccccc2)c1)N1CCCCCC1` [IV-f, [1,1′-biphenyl]-3-yl(azepan-1-yl)methanone], in data set [2] (10 μM in DMSO), the “Increase versus UV treatment (#2)” value is reported as “+6%” and the “Dermal collagen III” value amounted to 85%. In addition, in data set [2] (100 μM in DMSO), the “Increase versus UV treatment (#2)” value was “+33%” and the “Dermal collagen III” value amounted to 106%. Further, the Dermal collagen in data set [1] (setting [4]) worked out at 103%. In addition, the “Increase versus cortisone (#2)” value in data set [1] (10 μM in DMSO) is given as “+34%”. The Dermal collagen in data set [1] (setting [5]) was 103%. Moreover, the “Increase versus cortisone (#2)” value in data set [1] (100 μM in DMSO) was “+34%”. Moreover, the Dermal collagen in data set [1] (setting [6]) was 93%. The “Increase versus cortisone (#2)” value in data set [1] (200 μM in DMSO) is on record as “+21%”. In data set [3], the “Solubility in cosmetic oils: Cetiol B” value is ≥ 10.6%^b, the “Solubility in cosmetic oils: DUB DIS” value is reported as ≥ 10.2%^b and the “Solubility in cosmetic oils: Finsolv EB” value is reported as ≥ 10.3%^b. Moreover, at 11β-HSD1, the remaining activity at 0.001 µM stood at 83%, the remaining activity at 0.00316 µM worked out at 73%, the remaining activity at 0.01 µM was 52% and the remaining activity at 0.03162 µM came out at 28%. The compound further had a remaining activity at 0.1 µM at 11β-HSD1 of 10%.

Turning to `Cc1ccc(-c2cccc(C(=O)N3CCCCCC3)c2)cc1F` [IV-a, azepan-1-yl(3′-fluoro-4′-methyl-[1,1′-biphenyl]-3-yl)methanone], in data set [2] (10 μM in DMSO), the “Increase versus UV treatment (#2)” value is “+13%” and the “Dermal collagen III” value is 90%. Moreover, in data set [2] (100 μM in DMSO), the “Increase versus UV treatment (#2)” value is “+21%” and the “Dermal collagen III” value is 97%. In data set [1] (setting [4]), this compound showed a Dermal collagen of 96%. In addition, in data set [1] (10 μM in DMSO), the “Increase versus cortisone (#2)” value is “+25%”. In data set [1] (setting [5]), this compound had a Dermal collagen of 97%. Moreover, the “Increase versus cortisone (#2)” value in data set [1] (100 μM in DMSO) is “+26%”. In data set [1] (setting [6]), the Dermal collagen worked out at 86%. Moreover, the “Increase versus cortisone (#2)” value in data set [1] (200 μM in DMSO) is “+12%”. On 11β-HSD1, this compound showed a remaining activity at 0.001 µM of 74%, a remaining activity at 0.00316 µM of 45%, a remaining activity at 0.01 µM of 22% and a remaining activity at 0.03162 µM of 8%. Also, at 11β-HSD1, the remaining activity at 0.1 µM came out at 2%.

On to `CC1CCN(C(=O)c2cccc(-c3cccc(C(N)=O)c3)c2)CC1` [II-k, 3′-(4-methylpiperidine-1-carbonyl)-[1,1′-biphenyl]-3-carboxamide], for which, in data set [3], the “Solubility in cosmetic oils: Cetiol B” value is 3.0%, the “Solubility in cosmetic oils: DUB DIS” value stood at 2.4% and the “Solubility in cosmetic oils: Finsolv EB” value turned out to be 3.4%.

Regarding `Cc1ccc(-c2cccc(C(=O)N3CC(C)OC(C)C3)c2)cc1F` (stereo not shown) [III-b, (2,6-dimethylmorpholino) (3′-fluoro-4′-methyl-[1,1′-biphenyl]-3-yl)methanone], in data set [3], the “Solubility in cosmetic oils: Cetiol B” value worked out at 10.0%, the “Solubility in cosmetic oils: DUB DIS” value was 4.3% and the “Solubility in cosmetic oils: Finsolv EB” value is recorded as 2.6%.

In the case of `Cc1ccc(-c2cccc(C(=O)N3CCCC(C)(C)C3)c2)cc1F` [II-h, (3,3-dimethylpiperidin-1-yl)(3′-fluoro-4′-methyl-[1,1′-biphenyl]-3-yl)methanone], on 11β-HSD1, the remaining activity at 40 pM turned out to be 74%, the remaining activity at 0.0001 µM was 45%, the remaining activity at 0.00032 µM amounted to 24% and the remaining activity at 0.001 µM stood at 10%.

With `Cc1ccc(-c2cccc(C(=O)N3CCCCCC3)c2)cc1` [IV-c, azepan-1-yl(4′-methyl-[1,1′-biphenyl]-3-yl)methanone], in data set [3], the “Solubility in cosmetic oils: Cetiol B” value was determined as 3.3%, the “Solubility in cosmetic oils: DUB DIS” value amounted to 2.6% and the “Solubility in cosmetic oils: Finsolv EB” value worked out at 4.0%. On 11β-HSD1, this compound showed a remaining activity at 0.001 µM of 70%, a remaining activity at 0.00316 µM of 42%, a remaining activity at 0.01 µM of 23% and a remaining activity at 0.03162 µM of 9%. Further, at 11β-HSD1, the remaining activity at 0.1 µM is 3%.

For `Cc1ccc(-c2cccc(C(=O)N3CCC(C)CC3)c2)cn1` [II-a, (4-methylpiperidin-1-yl)(3-(6-methylpyridin-3-yl)phenyl)methanone], the “Increase versus UV treatment (#2)” value in data set [2] (10 μM in DMSO) was “+5%”; in data set [2] (100 μM in DMSO) it was “+43%”. Besides, the “Dermal collagen III” value in data set [2] (10 μM in DMSO) is given as 84%; in data set [2] (100 μM in DMSO) it was 114%. Besides, the values for the Dermal collagen in data set [1] (setting [4]), in data set [1] (setting [5]) and in data set [1] (setting [6]) were 94%, 108% and 114%, respectively. The “Increase versus cortisone (#2)” value is given as “+22%” in data set [1] (10 μM in DMSO), “+40%” in data set [1] (100 μM in DMSO) and “+48%” in data set [1] (200 μM in DMSO). For the same compound, in data set [3], the “Solubility in cosmetic oils: Cetiol B” value was ≥ 13.2%^b. Moreover, the “Solubility in cosmetic oils: DUB DIS” value in data set [3] is listed as ≥ 10.6%^b. In data set [3], the “Solubility in cosmetic oils: Finsolv EB” value was ≥ 10.2%^b.
